Patent US20110009381A1, “SOLUBILIZED THIAZOLOPYRIDINES” (Sirtis Pharmaceuticals, Inc., priority 2007, published 2011)

Target: T1, SIRT1 (Homo sapiens, UniProt Q96EB6)
T1 sequence (Q96EB6 1-747): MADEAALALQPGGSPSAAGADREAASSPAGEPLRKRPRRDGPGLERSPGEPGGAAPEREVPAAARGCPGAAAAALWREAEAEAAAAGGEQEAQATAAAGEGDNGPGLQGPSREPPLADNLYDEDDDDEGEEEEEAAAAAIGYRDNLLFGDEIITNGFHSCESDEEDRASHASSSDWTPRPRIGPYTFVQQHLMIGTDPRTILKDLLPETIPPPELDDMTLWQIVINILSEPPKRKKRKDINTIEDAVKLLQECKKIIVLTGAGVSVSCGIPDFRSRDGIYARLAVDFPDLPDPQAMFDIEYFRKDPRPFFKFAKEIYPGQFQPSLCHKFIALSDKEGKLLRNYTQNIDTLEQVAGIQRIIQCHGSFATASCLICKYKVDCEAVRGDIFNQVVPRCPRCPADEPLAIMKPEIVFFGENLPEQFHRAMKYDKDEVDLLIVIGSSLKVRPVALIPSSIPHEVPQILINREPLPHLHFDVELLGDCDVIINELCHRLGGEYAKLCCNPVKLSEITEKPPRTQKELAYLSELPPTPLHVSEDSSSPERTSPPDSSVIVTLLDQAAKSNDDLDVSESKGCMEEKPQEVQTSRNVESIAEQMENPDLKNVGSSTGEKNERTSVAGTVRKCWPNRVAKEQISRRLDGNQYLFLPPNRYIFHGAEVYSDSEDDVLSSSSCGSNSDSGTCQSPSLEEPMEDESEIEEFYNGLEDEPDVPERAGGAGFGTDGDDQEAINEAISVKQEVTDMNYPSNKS
Test: Mass spectrometry based assay to identify modulators of SIRT1 activity (deacetylation of p53-based acetylated peptide substrate)
Assay type: biochemical
Conditions: 10 nM SIRT1, 0.5 μM peptide substrate, 120 μM βNAD+, 25 minutes at 25° C.; for EC1.5: SIRT1 activation
Excerpt: A mass spectrometry based assay was used to identify modulators of SIRT1 activity. The mass spectrometry based assay utilizes a peptide having 20 amino acid residues as follows: Ac-EE-K(biotin)-GQSTSSHSK(Ac)NleSTEG-K(5TMR)-EE-NH2 (SEQ ID NO: 1) wherein K(Ac) is an acetylated lysine residue and Nle is a norleucine. The peptide is labeled with the fluorophore 5TMR (excitation 540 nm/emission 580 nm) at the C-terminus. The sequence of the peptide substrate is based on p53 with several modifications. In addition, the methionine residue naturally present in the sequence was replaced with the norleucine because the methionine may be susceptible to oxidation during synthesis and purification.
The mass spectrometry assay is conducted as follows: 0.5 μM peptide substrate and 120 μM βNAD^+ is incubated with 10 nM SIRT1 for 25 minutes at 25° C. in a reaction buffer (50 mM Tris-acetate pH 8, 137 mM NaCl, 2.7 mM KCl, 1 mM MgCl2, 5 mM DTT, 0.05% BSA). Test compounds may be added to the reaction as described above. The SirT1 gene is cloned into a T7-promoter containing vector and transformed into BL21(DE3). After the 25 minute incubation with SIRT1, 10 μL of 10% formic acid is added to stop the reaction. Reactions are sealed and frozen for later mass spec analysis. Determination of the mass of the substrate peptide allows for precise determination of the degree of acetylation (i.e. starting material) as compared to deacetylated peptide (product).
A control for inhibition of sirtuin activity is conducted by adding 1 μL of 500 mM nicotinamide as a negative control at the start of the reaction (e.g., permits determination of maximum sirtuin inhibition). A control for activation of sirtuin activity is conducted using 10 nM of sirtuin protein, with 1 μL of DMSO in place of compound, to determine the amount of deacetylation of the substrate at a given timepoint within the linear range of the assay. This timepoint is the same as that used for test compounds and, within the linear range, the endpoint represents a change in velocity.
For the above assay, SIRT1 protein was expressed and purified as follows. The SirT1 gene was cloned into a T7-promoter containing vector and transformed into BL21(DE3). The protein was expressed by induction with 1 mM IPTG as an N-terminal His-tag fusion protein at 18° C. overnight and harvested at 30,000×g. Cells were lysed with lysozyme in lysis buffer (50 mM Tris-HCl, 2 mM Tris[2-carboxyethyl]phosphine (TCEP), 10 μM ZnCl2, 200 mM NaCl) and further treated with sonication for 10 min for complete lysis. The protein was purified over a Ni-NTA column (Amersham) and fractions containing pure protein were pooled, concentrated and run over a sizing column (Sephadex S200 26/60 global). The peak containing soluble protein was collected and run on an Ion-exchange column (MonoQ). Gradient elution (200 mM-500 mM NaCl) yielded pure protein. This protein was concentrated and dialyzed against dialysis buffer (20 mM Tris-HCl, 2 mM TCEP) overnight. The protein was aliquoted and frozen at −80° C. until further use.
Sirtuin modulating compounds that activated SIRT1 were identified using the assay described above and are shown below in Table 1. The EC1-5 values for the activating compounds are represented by A′ (EC1.5<250 nM), A (EC1.5≧250 nM and ≦1 uM), B (EC1.5>1 and ≦10 uM), or C (EC1.5>10 uM). The percent maximum fold activation is represented by A (Fold activation≧300%), B (Fold Activation≧150% and <300%), or C (Fold Activation<150%).

SMILES | FOLD ACT. (percent maximum fold activation) | EC1.5
Cl.O=C(Nc1ccccc1-c1nc2cccnc2s1)c1cc(NCCN2CCCC2)nc(-c2ccccc2)n1 [Compound 62] | A (Fold activation≧300%) | A′ (EC1.5<250 nM)
O=C(Nc1ccccc1-c1nc2cccnc2s1)c1cc(NC2CCCCC2)nc(-c2ccccc2)n1 [Compound 63] | C (Fold Activation<150%) | C (EC1.5>10 uM)
CC(C)N1CCN(c2cc(C(=O)Nc3ccccc3-c3nc4cccnc4s3)nc(-c3ccccc3)n2)CC1.Cl [Compound 65] | B (Fold Activation≧150% and <300%) | A′ (EC1.5<250 nM)
Cl.O=C(Nc1ccccc1-c1nc2cccnc2s1)c1cc(NCCN2CCCCC2)nc(-c2ccccc2)n1 [Compound 67] | A (Fold activation≧300%) | A′ (EC1.5<250 nM)
COCCN(CCOC)c1cc(C(=O)Nc2ccccc2-c2nc3cccnc3s2)nc(-c2ccccc2)n1 [Compound 68] | A (Fold activation≧300%) | A′ (EC1.5<250 nM)
O=C(Nc1ccccc1-c1nc2cccnc2s1)c1cc(NC2CCCNC2)nc(-c2ccccc2)n1 (centres unmarked) [Compound 72] | A (Fold activation≧300%) | A′ (EC1.5<250 nM)
CCS(=O)(=O)CCNc1cc(C(=O)Nc2ccccc2-c2nc3cccnc3s2)nc(-c2ccccc2)n1 [Compound 74] | A (Fold activation≧300%) | A′ (EC1.5<250 nM)
C[C@H](Nc1cc(C(=O)Nc2ccccc2-c2nc3cccnc3s2)nc(-c2ccccc2)n1)C(=O)O [Compound 75] | A (Fold activation≧300%) | A (EC1.5≧250 nM and ≦1 uM)
NCCCOc1cc(C(=O)Nc2ccccc2-c2nc3cccnc3s2)nc(-c2ccccc2)n1 [Compound 76] | A (Fold activation≧300%) | A′ (EC1.5<250 nM)
O=C(Nc1ccccc1-c1nc2cccnc2s1)c1ccc(CN2CCOCC2)c(-c2ccccc2)n1 [Compound 77] | B (Fold Activation≧150% and <300%) | A (EC1.5≧250 nM and ≦1 uM)
O=C(Nc1ccccc1-c1nc2cccnc2s1)c1cc(C#CCO)nc(-c2ccccc2)n1 [Compound 79] | C (Fold Activation<150%) | C (EC1.5>10 uM)
CCN(CC)CCCNc1cc(C(=O)Nc2ccccc2-c2nc3cccnc3s2)nc(-c2ccccc2)n1 [Compound 81] | A (Fold activation≧300%) | A′ (EC1.5<250 nM)
O=C(Nc1ccccc1-c1nc2cccnc2s1)c1cc(NCC2CCNCC2)nc(-c2ccccc2)n1 [Compound 82] | A (Fold activation≧300%) | A′ (EC1.5<250 nM)
NCCCNc1cc(C(=O)Nc2ccccc2-c2nc3cccnc3s2)nc(-c2ccccc2)n1 [Compound 84] | A (Fold activation≧300%) | A′ (EC1.5<250 nM)
NCCCCNc1cc(C(=O)Nc2ccccc2-c2nc3cccnc3s2)nc(-c2ccccc2)n1 [Compound 87] | A (Fold activation≧300%) | A (EC1.5≧250 nM and ≦1 uM)
CN(C)CCCNc1cc(C(=O)Nc2ccccc2-c2nc3cccnc3s2)nc(-c2ccccc2)n1 [Compound 88] | A (Fold activation≧300%) | A (EC1.5≧250 nM and ≦1 uM)
O=C(Nc1ccccc1-c1nc2cccnc2s1)c1cc(NCC2CCCCN2)nc(-c2ccccc2)n1 (centres unmarked) [Compound 89] | A (Fold activation≧300%) | A′ (EC1.5<250 nM)
O=C(Nc1ccccc1-c1nc2cccnc2s1)c1cc(NC2CCOC2=O)nc(-c2ccccc2)n1 (centres unmarked) [Compound 91] | A (Fold activation≧300%) | A′ (EC1.5<250 nM)
CCN(CC)CCCOc1cc(C(=O)Nc2ccccc2-c2nc3cccnc3s2)nc(-c2ccccc2)n1 [Compound 93] | A (Fold activation≧300%) | A (EC1.5≧250 nM and ≦1 uM)

More lines, now with the values ahead:

FOLD ACT. (percent maximum fold activation) | EC1.5 | SMILES
C (Fold Activation<150%) | C (EC1.5>10 uM) | CNc1cc(C(=O)Nc2ccccc2-c2nc3cccnc3s2)nc(-c2ccccc2)n1 [Compound 64]
A (Fold activation≧300%) | A′ (EC1.5<250 nM) | O=C(Nc1ccccc1-c1nc2cccnc2s1)c1cc(NC(CO)CO)nc(-c2ccccc2)n1 [Compound 69]
B (Fold Activation≧150% and <300%) | A (EC1.5≧250 nM and ≦1 uM) | C[C@@H]1CN(c2cc(C(=O)Nc3ccccc3-c3nc4cccnc4s3)nc(-c3ccccc3)n2)C[C@H](C)O1 [Compound 70]
A (Fold activation≧300%) | A′ (EC1.5<250 nM) | O=C(Nc1ccccc1-c1nc2cccnc2s1)c1cc(N2C[C@H]3C[C@@H]2CN3)nc(-c2ccccc2)n1 [Compound 71]
B (Fold Activation≧150% and <300%) | B (EC1.5>1 and ≦10 uM) | CCSCCNc1cc(C(=O)Nc2ccccc2-c2nc3cccnc3s2)nc(-c2ccccc2)n1 [Compound 73]
A (Fold activation≧300%) | A′ (EC1.5<250 nM) | Cc1ccn(CCNc2cc(C(=O)Nc3ccccc3-c3nc4cccnc4s3)nc(-c3ccccc3)n2)n1 [Compound 78]
C (Fold Activation<150%) | C (EC1.5>10 uM) | O=C(Nc1ccccc1-c1nc2cccnc2s1)c1cc(OCCO)nc(-c2ccccc2)n1 [Compound 80]
A (Fold activation≧300%) | A (EC1.5≧250 nM and ≦1 uM) | NCCNc1cc(C(=O)Nc2ccccc2-c2nc3cccnc3s2)nc(-c2ccccc2)n1 [Compound 83]
A (Fold activation≧300%) | A (EC1.5≧250 nM and ≦1 uM) | O=C(Nc1ccccc1-c1nc2cccnc2s1)c1cc(N[C@H]2CCCNC2)nc(-c2ccccc2)n1 [Compound 85]
A (Fold activation≧300%) | A′ (EC1.5<250 nM) | NCCCCCNc1cc(C(=O)Nc2ccccc2-c2nc3cccnc3s2)nc(-c2ccccc2)n1 [Compound 86]
A (Fold activation≧300%) | A (EC1.5≧250 nM and ≦1 uM) | CCN(CC)CCOc1cc(C(=O)Nc2ccccc2-c2nc3cccnc3s2)nc(-c2ccccc2)n1 [Compound 90]
A (Fold activation≧300%) | B (EC1.5>1 and ≦10 uM) | O=C(Nc1ccccc1-c1nc2cccnc2s1)c1cc(NC(CO)C(=O)O)nc(-c2ccccc2)n1 (centres unmarked) [Compound 92]
